Results from US7915276B2, “Berberrubine derivatives having antifungal activities” (priority 2006, dated 2011).

Experiments:
[1] = target: T1, chitin synthase 2 of Saccharomyces cerevisiae ECY38-38A(pAS6) (Saccharomyces cerevisiae, UniProt P14180); assay: In vitro enzyme assay for chitin synthase 2 of Saccharomyces cerevisiae (enzyme 2); type: biochemical; settings: relative to polyoxin D (50% inhibitory activity = value 5)
T1 construct: made in house; host or cells: Saccharomyces cerevisiae ECY38-38A (chs1-23 chs2::LEU2 cal1/csd2) carrying plasmid pAS6, grown in galactose medium; 130,000 x g membrane pellet
T1 sequence (P14180 whole entry): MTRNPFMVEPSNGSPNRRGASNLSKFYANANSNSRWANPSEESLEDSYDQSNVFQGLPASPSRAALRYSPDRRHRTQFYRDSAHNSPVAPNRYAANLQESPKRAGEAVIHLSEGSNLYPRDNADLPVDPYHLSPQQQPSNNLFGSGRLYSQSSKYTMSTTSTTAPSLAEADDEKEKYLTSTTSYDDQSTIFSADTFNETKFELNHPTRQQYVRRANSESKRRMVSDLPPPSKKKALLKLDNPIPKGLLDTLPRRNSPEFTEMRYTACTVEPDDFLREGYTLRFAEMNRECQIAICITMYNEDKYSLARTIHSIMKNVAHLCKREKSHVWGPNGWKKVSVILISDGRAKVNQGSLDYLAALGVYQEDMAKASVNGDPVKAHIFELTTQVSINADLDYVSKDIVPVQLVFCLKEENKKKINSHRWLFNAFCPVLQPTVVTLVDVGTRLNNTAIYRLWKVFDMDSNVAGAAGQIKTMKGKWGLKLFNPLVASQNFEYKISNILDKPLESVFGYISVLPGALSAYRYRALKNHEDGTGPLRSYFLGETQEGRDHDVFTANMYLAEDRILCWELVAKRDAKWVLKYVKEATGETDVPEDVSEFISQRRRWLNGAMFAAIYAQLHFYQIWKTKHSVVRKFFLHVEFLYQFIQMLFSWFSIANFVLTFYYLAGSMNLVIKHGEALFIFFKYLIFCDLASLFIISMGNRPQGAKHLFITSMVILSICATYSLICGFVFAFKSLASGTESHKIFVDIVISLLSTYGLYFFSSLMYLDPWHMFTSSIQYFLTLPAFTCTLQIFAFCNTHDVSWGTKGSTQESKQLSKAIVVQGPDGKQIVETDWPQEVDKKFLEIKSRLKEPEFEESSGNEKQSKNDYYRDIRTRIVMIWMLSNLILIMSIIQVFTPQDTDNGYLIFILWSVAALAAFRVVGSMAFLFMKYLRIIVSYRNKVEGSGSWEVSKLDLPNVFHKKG
Description: Crude enzyme was prepared using the recombinant Saccharomyces cerevisiae ECY38-38A(pAS6) (MATa chs1-23 chs2::LEU2 cal 1/csd 2 ura 3-52 trp 1-1 leu 2-2 pAS6) strain, which can produce the chitin synthase 2 only. The strain was inoculated with the YPG culture medium (1% yeast extract, 2% peptone, 2% galactose) and cultured at 30° C. overnight. Then, it was inoculated with a fresh YPG culture medium and cultured for 15-17 hours until the Absorbance at 550 nm reaches 1.0. The cells were collected and suspended in 50 mM Tris-HCl (pH 7.5) buffer containing 5 mM magnesium acetate. After centrifugation at 8,000×g for 10 minutes, the pellets were suspended in the same Tris-HCl buffer solution. The suspension was divided into aliquots in 50 mL conical test tubes. After adding the glass beads, the cells were disrupted by vigorously vortexing with an interval of 30 seconds. The cell residues were removed by centrifuging at 3,000×g for 5 minutes. The supernatant was ultra-centrifuged at 130,000×g for 1 hour. The resultant pellets were collected and suspended in 50 mM Tris-HCl (pH 7.5) containing 33% glycerol, to a final volume of 1.6 mg/g (wet weight) of yeast used. The suspension was divided into aliquots and kept at −70° C. until it is used.
(§1) The inhibitory activities against the chitin synthase 1 of Candida albicans chs2 Δ chs 3 Δ (abbreviated as ‘enzyme 1’) and the chitin synthase 2 of Saccharomyces cerevisiae ECY38-38A(pAS6)(abbreviated as ‘enzyme 2’) was examined for compound Nos. 1 to 70 compound and polyoxin D, a positive control compound.
(§2) The inhibitory activity against the chitin synthase 1 prepared from Candida albicans and the chitin synthase 2 prepared from Saccharomyces cerevisiae were examined as follows. A reaction mixture containing 32 mM Tris-HCl (pH 7.5), 2 mM cobalt acetate, 1.1 mM UDP-[U-^14C]-N-acetyl-d-glucosamine (GlcNAc) (400,000 cpm/μmol), 2 μL of trypsin (0.75 mg/mL), 20 μL of each crude enzyme and 14 μL of each test sample was kept at 30° C. for 15 minutes to activate the enzyme. Then, 2 μL of trypsin inhibitor (1.5 mg/mL) was added and the mixture was kept in an ice bath for 10 minutes to deactivate trypsin. 2 μL of 0.8 M N-acetyl-d-glucosamine was added to a total volume of 50 μL and reaction was performed at 30° C. for 90 minutes. The reaction was stopped using 1 mL of 10% TCA solution and the reaction solution was filtered with a GF/C filter and dried at room temperature. After adding 3 mL of a scintillation cocktail solution, the amount of isotopes was measured using a liquid scintillation counter. Percentage inhibition against each enzyme was calculated by the following Equation 1.
(§3) The control group was not added with a test sample in the reaction mixture and that of the untreated group contained neither the test sample nor the crude enzyme.
(§4) A 50% inhibitory activity of polyoxin D against the enzyme was given the value 5. A compound having the same inhibitory activity as that of polyoxin D at the same concentration was given the value 5. Compounds having the inhibitory activity at 2-fold, 4-fold, 8-fold and 16-fold higher concentrations than that of polyoxin D were given the values of 4, 3, 2 and 1, respectively. On the other hand, compounds having the inhibitory activity at ½, ¼ and ⅛ lower concentrations than that of polyoxin D were given the values of 6, 7 and 8, respectively.

[2] = target: T2, chitin synthase 1 of Candida albicans chs2 Δ chs 3 Δ (Candida albicans, UniProt P23316); assay: In vitro enzyme assay for chitin synthase 1 of Candida albicans (enzyme 1); type: biochemical; settings: relative to polyoxin D (50% inhibitory activity = value 5)
T2 construct: Crude enzyme was prepared using the Candida albicans chs2 Δ chs 3 Δ mutant; endogenous in cells; host or cells: Candida albicans chs2Δ/chs2Δ chs3Δ/chs3Δ mutant; 130,000 x g membrane pellet
T2 sequence (P23316 whole entry, stated change not applied): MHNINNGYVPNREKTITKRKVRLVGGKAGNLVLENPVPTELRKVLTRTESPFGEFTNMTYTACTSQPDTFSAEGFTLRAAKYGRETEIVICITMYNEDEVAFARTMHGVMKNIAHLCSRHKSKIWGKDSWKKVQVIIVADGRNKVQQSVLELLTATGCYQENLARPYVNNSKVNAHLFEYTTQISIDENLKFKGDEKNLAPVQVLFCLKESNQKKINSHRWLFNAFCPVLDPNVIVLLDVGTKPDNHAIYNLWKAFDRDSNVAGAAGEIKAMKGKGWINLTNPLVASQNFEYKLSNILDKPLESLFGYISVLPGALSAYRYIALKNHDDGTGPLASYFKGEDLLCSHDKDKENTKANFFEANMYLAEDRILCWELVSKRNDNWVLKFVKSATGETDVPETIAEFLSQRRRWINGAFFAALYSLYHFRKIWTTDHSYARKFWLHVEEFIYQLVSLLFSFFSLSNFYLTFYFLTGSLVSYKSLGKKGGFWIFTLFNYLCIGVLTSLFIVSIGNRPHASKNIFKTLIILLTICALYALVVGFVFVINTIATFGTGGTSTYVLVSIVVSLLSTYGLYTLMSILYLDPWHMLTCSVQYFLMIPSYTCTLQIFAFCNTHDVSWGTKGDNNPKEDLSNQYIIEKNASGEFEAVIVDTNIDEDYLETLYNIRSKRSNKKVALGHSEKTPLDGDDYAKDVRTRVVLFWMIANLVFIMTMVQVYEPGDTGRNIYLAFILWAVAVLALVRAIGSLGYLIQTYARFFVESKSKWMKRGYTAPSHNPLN
Description: Crude enzyme was prepared using the Candida albicans chs2 Δ chs 3 Δ mutant (chs2 Δ::hisG/chs2 Δ::hisG chs3 Δ::hisG/chs3 Δ::hisG) strain, which can only produce the chitin synthase 1. The strain was inoculated with the SDA (Sabouraud dextrose agar) culture medium (4% dextrose, 1% peptone, pH 5.6) and cultured at 30° C. for 15-17 hours until the absorbance at 550nm reaches 0.7. The cells were collected and suspended in a 50 mM Tris-HCl (pH 7.5) buffer solution containing 5 mM magnesium acetate. After centrifugation at 8,000×g for 10 minutes, the pellets were suspended in the same Tris-HCl buffer solution. The suspension was divided into aliquots in 50 mL conical test tubes. After adding glass beads, the cells were disrupted by vigorously vortexing with an interval of 30 seconds. The cell residues were removed by centrifuging at 3,000×g for 5 minutes. The supernatant was ultra-centrifuged at 130,000×g for 1 hour. The resultant pellets were collected and suspended in 50 mM Tris-HCl (pH 7.5) containing 33% glycerol, to a final volume of 1.6 mg/g (wet weight) of yeast used. The suspension was divided into aliquots and kept at −70° C. until it is used.
as §1, §2, §3, §4

Compound | Relative activity Enzyme 2 [1] | Relative activity Enzyme 1 [2]
13-(4-Trifluoromethoxybenzyl)berberrubine [Compound No. 3] | 3 (Compounds having the inhibitory activity at 2-fold, 4-fold, 8-fold and 16-fold higher concentrations than that of polyoxin D were given the values of 4, 3, 2 and 1, respectively) | 1 (Compounds having the inhibitory activity at 2-fold, 4-fold, 8-fold and 16-fold higher concentrations than that of polyoxin D were given the values of 4, 3, 2 and 1, respectively)
13-(4-Trifluoromethylbenzyl)-9-O-butylberberrubine chloride [Compound No. 68] | 6 (compounds having the inhibitory activity at ½, ¼ and ⅛ lower concentrations than that of polyoxin D were given the values of 6, 7 and 8, respectively) | 3 (Compounds having the inhibitory activity at 2-fold, 4-fold, 8-fold and 16-fold higher concentrations than that of polyoxin D were given the values of 4, 3, 2 and 1, respectively)
13-(4-Trifluoromethylbenzyl)-9-O-butylberberrubine iodide [Compound No. 36] | 6 (compounds having the inhibitory activity at ½, ¼ and ⅛ lower concentrations than that of polyoxin D were given the values of 6, 7 and 8, respectively) | 3 (Compounds having the inhibitory activity at 2-fold, 4-fold, 8-fold and 16-fold higher concentrations than that of polyoxin D were given the values of 4, 3, 2 and 1, respectively)
13-(4-Trifluoromethylbenzyl)-9-O-hexylberberrubine chloride [Compound No. 69] | 5 (A compound having the same inhibitory activity as that of polyoxin D at the same concentration was given the value 5) | 3 (Compounds having the inhibitory activity at 2-fold, 4-fold, 8-fold and 16-fold higher concentrations than that of polyoxin D were given the values of 4, 3, 2 and 1, respectively)
13-(4-Trifluoromethylbenzyl)-9-O-hexylberberrubine iodide [Compound No. 37] | 5 (A compound having the same inhibitory activity as that of polyoxin D at the same concentration was given the value 5) | 2 (Compounds having the inhibitory activity at 2-fold, 4-fold, 8-fold and 16-fold higher concentrations than that of polyoxin D were given the values of 4, 3, 2 and 1, respectively)
13-(4-Trifluoromethylbenzyl)berberrubine [Compound No. 4] | 3 (Compounds having the inhibitory activity at 2-fold, 4-fold, 8-fold and 16-fold higher concentrations than that of polyoxin D were given the values of 4, 3, 2 and 1, respectively) | 1 (Compounds having the inhibitory activity at 2-fold, 4-fold, 8-fold and 16-fold higher concentrations than that of polyoxin D were given the values of 4, 3, 2 and 1, respectively)
13-(4-tert-Butylbenzyl)berberrubine [Compound No. 5] | 4 (Compounds having the inhibitory activity at 2-fold, 4-fold, 8-fold and 16-fold higher concentrations than that of polyoxin D were given the values of 4, 3, 2 and 1, respectively) | 2 (Compounds having the inhibitory activity at 2-fold, 4-fold, 8-fold and 16-fold higher concentrations than that of polyoxin D were given the values of 4, 3, 2 and 1, respectively)
COc1ccc2c(Cc3ccc(C(F)(F)F)cc3)c3[n+](cc2c1OC)CCc1cc2c(cc1-3)OCO2.[Cl-] [Comparative compound 2, reference compound] | 2 (Compounds having the inhibitory activity at 2-fold, 4-fold, 8-fold and 16-fold higher concentrations than that of polyoxin D were given the values of 4, 3, 2 and 1, respectively) | <1 (Compounds having the inhibitory activity at 2-fold, 4-fold, 8-fold and 16-fold higher concentrations than that of polyoxin D were given the values of 4, 3, 2 and 1, respectively)
COc1ccc2c(Cc3ccc(C(OC)(OC)OC)cc3)c3[n+](cc2c1OC)CCc1cc2c(cc1-3)OCO2.[Cl-] [Comparative compound 3, reference compound] | 1 (Compounds having the inhibitory activity at 2-fold, 4-fold, 8-fold and 16-fold higher concentrations than that of polyoxin D were given the values of 4, 3, 2 and 1, respectively) | <1 (Compounds having the inhibitory activity at 2-fold, 4-fold, 8-fold and 16-fold higher concentrations than that of polyoxin D were given the values of 4, 3, 2 and 1, respectively)
COc1ccc2c(Cc3cc(F)c(F)c(F)c3)c3[n+](cc2c1OCc1ccc(C(C)(C)C)cc1)CCc1cc2c(cc1-3)OCO2.[Br-] [Compound No. 29, 13-(3,4,5-Trifluorobenzyl)-9-O-(4-tert-butylbenzyl)berberrubine bromide] | 5 (A compound having the same inhibitory activity as that of polyoxin D at the same concentration was given the value 5) | 2 (Compounds having the inhibitory activity at 2-fold, 4-fold, 8-fold and 16-fold higher concentrations than that of polyoxin D were given the values of 4, 3, 2 and 1, respectively)
COc1cc(Cc2c3[n+](cc4c(OCc5ccc(C(C)(C)C)cc5)c(OC)ccc24)CCc2cc4c(cc2-3)OCO4)cc(OC)c1OC.[Br-] [Compound No. 32, 13-(3,4,5-Trimethoxybenzyl)-9-O-(4-tert-butylbenzyl)berberrubine bromide] | 4 (Compounds having the inhibitory activity at 2-fold, 4-fold, 8-fold and 16-fold higher concentrations than that of polyoxin D were given the values of 4, 3, 2 and 1, respectively) | 2 (Compounds having the inhibitory activity at 2-fold, 4-fold, 8-fold and 16-fold higher concentrations than that of polyoxin D were given the values of 4, 3, 2 and 1, respectively)
COc1ccc2c(Cc3ccc(OC(F)(F)F)cc3)c3[n+](cc2c1OCc1ccc(C(C)(C)C)cc1)CCc1cc2c(cc1-3)OCO2.[Br-] [Compound No. 35, 13-(4-Trifluoromethoxybenzyl)-9-O-(4-tert-butylbenzyl)berberrubine bromide] | 5 (A compound having the same inhibitory activity as that of polyoxin D at the same concentration was given the value 5) | 2 (Compounds having the inhibitory activity at 2-fold, 4-fold, 8-fold and 16-fold higher concentrations than that of polyoxin D were given the values of 4, 3, 2 and 1, respectively)
COc1ccc2c(Cc3ccc(C(F)(F)F)cc3)c3[n+](cc2c1OCc1ccc(C(C)(C)C)cc1)CCc1cc2c(cc1-3)OCO2.[Br-] [Compound No. 38, 13-(4-Trifluoromethylbenzyl)-9-O-(4-tert-butylbenzyl)berberrubine bromide] | 5 (A compound having the same inhibitory activity as that of polyoxin D at the same concentration was given the value 5) | 2 (Compounds having the inhibitory activity at 2-fold, 4-fold, 8-fold and 16-fold higher concentrations than that of polyoxin D were given the values of 4, 3, 2 and 1, respectively)
